# Experimental data from the supplement of paper PMC12406974.
# Key:
# Test in all cases: maximum observed lethal fraction; higher = more cell death
# U2OS BCL2L12-KO = tested on: U2OS BCL2L12-KO
# U2OS PTBP1-KO = tested on: U2OS PTBP1-KO
# U2OS = tested on: U2OS
# U2OS BAX/BAK1 DKO = tested on: U2OS BAX/BAK1 DKO
# 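Note: FLICK assay: SYTOX Green fluorescence of dead cells tracked over time after drugging in 96-well plates, with total cell counts taken from Triton X-100 lysed wells.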
Structure (SMILES),maximum observed lethal fraction (U2OS BCL2L12-KO; 0.0316 µM),maximum observed lethal fraction (U2OS BCL2L12-KO; 0.1 µM),maximum observed lethal fraction (U2OS BCL2L12-KO; 0.316 µM),maximum observed lethal fraction (U2OS BCL2L12-KO; 1 µM),maximum observed lethal fraction (U2OS BCL2L12-KO; 3.16 µM),maximum observed lethal fraction (U2OS BCL2L12-KO; 10 µM),maximum observed lethal fraction (U2OS BCL2L12-KO; 31.6 µM),maximum observed lethal fraction (U2OS PTBP1-KO; 0.0316 µM),maximum observed lethal fraction (U2OS PTBP1-KO; 0.1 µM),maximum observed lethal fraction (U2OS PTBP1-KO; 0.316 µM),maximum observed lethal fraction (U2OS PTBP1-KO; 1 µM),maximum observed lethal fraction (U2OS PTBP1-KO; 3.16 µM),maximum observed lethal fraction (U2OS PTBP1-KO; 10 µM),maximum observed lethal fraction (U2OS PTBP1-KO; 31.6 µM),maximum observed lethal fraction (U2OS; 0.0316 µM),maximum observed lethal fraction (U2OS; 0.1 µM),maximum observed lethal fraction (U2OS; 0.316 µM),maximum observed lethal fraction (U2OS; 1 µM),maximum observed lethal fraction (U2OS; 3.16 µM),maximum observed lethal fraction (U2OS; 10 µM),maximum observed lethal fraction (U2OS; 31.6 µM),maximum observed lethal fraction (U2OS BAX/BAK1 DKO; 0.0316 µM),maximum observed lethal fraction (U2OS BAX/BAK1 DKO; 0.1 µM),maximum observed lethal fraction (U2OS BAX/BAK1 DKO; 0.316 µM),maximum observed lethal fraction (U2OS BAX/BAK1 DKO; 1 µM),maximum observed lethal fraction (U2OS BAX/BAK1 DKO; 3.16 µM),maximum observed lethal fraction (U2OS BAX/BAK1 DKO; 10 µM),maximum observed lethal fraction (U2OS BAX/BAK1 DKO; 31.6 µM),maximum observed lethal fraction (U2OS BCL2L12-KO; 0.01 µM),maximum observed lethal fraction (U2OS PTBP1-KO; 0.01 µM),maximum observed lethal fraction (U2OS; 0.01 µM),maximum observed lethal fraction (U2OS BAX/BAK1 DKO; 0.01 µM),maximum observed lethal fraction (U2OS BCL2L12-KO; 100 µM),maximum observed lethal fraction (U2OS PTBP1-KO; 100 µM),maximum observed lethal fraction (U2OS; 100 µM),maximum observed lethal fraction (U2OS BAX/BAK1 DKO; 100 µM),maximum observed lethal fraction (U2OS BCL2L12-KO; 316 µM),maximum observed lethal fraction (U2OS PTBP1-KO; 316 µM),maximum observed lethal fraction (U2OS; 316 µM),maximum observed lethal fraction (U2OS BAX/BAK1 DKO; 316 µM)
O=C(NOC[C@H](O)CO)c1ccc(F)c(F)c1Nc1ccc(I)cc1F [Mirdametinib],0.104,0.11,0.123,0.349,0.546,0.58,0.806,0.0994,0.11,0.102,0.121,0.187,0.229,0.376,0.0749,0.077,0.0842,0.244,0.353,0.435,0.554,0.0734,0.0716,0.0737,0.078,0.0794,0.0785,0.0843,,,,,,,,,,,,
CC(=O)N[C@H]1[C@@H](O[C@@H]2O[C@H](CC(O)[C@H]3O[C@@H](n4ccc(=O)[nH]c4=O)[C@H](O)[C@@H]3O)[C@H](O)[C@H](O)[C@H]2NC(=O)/C=C/CC(C)C)O[C@H](CO)[C@@H](N)[C@@H]1O (some centres undefined) [Tunicamycin],0.0693,0.0857,0.196,0.58,0.86,0.873,,0.0731,0.0724,0.0808,0.104,0.345,0.533,,0.0561,0.0662,0.0886,0.347,0.692,0.82,,0.0546,0.0609,0.0665,0.0788,0.089,0.0844,,0.0673,0.0696,0.0548,0.0556,,,,,,,,
C[C@H]1CCC/C=C/[C@@H]2C[C@H](O)C[C@H]2[C@H](O)/C=C/C(=O)O1 [Brefeldin A],0.218,0.387,0.628,0.709,0.77,0.793,0.86,0.168,0.257,0.333,0.321,0.29,0.411,0.389,0.0868,0.38,0.634,0.701,0.762,0.775,0.818,0.0711,0.075,0.0688,0.0708,0.0703,0.0786,0.0716,,,,,,,,,,,,
CN(C)C(=O)c1cc2cnc(Nc3ccc(N4CCNCC4)cn3)nc2n1C1CCCC1 [Ribociclib],0.0572,0.0587,0.0607,0.0645,0.07,0.0804,,0.0595,0.064,0.0704,0.0696,0.0751,0.0787,,0.0565,0.0602,0.0591,0.0629,0.0661,0.077,,0.057,0.0609,0.0673,0.0658,0.0721,0.082,,0.0551,0.0584,0.0675,0.0572,,,,,,,,
Nc1ncnc2c1ncn2[C@@H]1O[C@H](CO)C[C@H]1O [Cordycepin],,0.0657,0.0642,0.064,0.068,0.0693,0.0825,,0.068,0.0684,0.0659,0.0646,0.0665,0.0847,,0.0524,0.0543,0.0522,0.0545,0.054,0.0774,,0.0507,0.0537,0.0531,0.0551,0.0542,0.0698,,,,,0.616,0.517,0.451,0.072,,,,
O=C(O)C1(C(=O)O)CCC1.[NH2-].[NH2-].[Pt+2] [Carboplatin],,,0.0652,0.0616,0.0672,0.0691,0.0714,,,0.0634,0.0611,0.0647,0.0661,0.0674,,,0.0493,0.052,0.0533,0.0546,0.056,,,0.0602,0.0593,0.0612,0.0614,0.0671,,,,,0.0762,0.0762,0.0693,0.0722,0.342,0.54,0.517,0.0825
COc1cc([C@@H]2c3cc4c(cc3[C@@H](O[C@@H]3O[C@@H]5CO[C@@H](c6cccs6)O[C@H]5[C@H](O)[C@H]3O)[C@H]3COC(=O)[C@H]23)OCO4)cc(OC)c1O [Teniposide],0.0736,0.0745,0.0806,0.355,0.728,0.801,0.968,0.079,0.0821,0.0892,0.383,0.686,0.763,0.815,0.0732,0.0749,0.0834,0.373,0.714,0.804,0.867,0.0788,0.0806,0.0807,0.0902,0.106,0.205,0.299,,,,,,,,,,,,
CC1(C)CCC(CN2CCN(c3ccc(C(=O)NS(=O)(=O)c4ccc(NCC5CCOCC5)c([N+](=O)[O-])c4)c(Oc4cnc5[nH]ccc5c4)c3)CC2)=C(c2ccc(Cl)cc2)C1 [ABT-199],,0.0643,0.0609,0.063,0.0712,0.114,0.39,,0.0644,0.0635,0.0617,0.0671,0.0741,0.211,,0.0502,0.0518,0.0546,0.0609,0.0939,0.239,,0.0501,0.0536,0.0531,0.0558,0.0561,0.0846,,,,,0.692,0.517,0.52,0.0728,,,,
